Test results: ChEMBL document CHEMBL1135846, “In vivo active antimalarial isonitriles” (Bioorg Med Chem Lett, 2002)
Values after ≈ are worked out from the molar mass of the structure shown.

What was measured:
[1] = tested on: Plasmodium falciparum; assay: In vitro antimalarial activity for Plasmodium falciparum NF54; format: functional
[2] = tested on: Mus musculus; assay: Antimalarial activity of compound against multidrug-resistant strain of Plasmodium yoelii in 5 Swiss mice (Mus musculus) treated at a dose of 100 mg/kg/day; format: functional
[3] = tested on: Mus musculus; assay: Antimalarial activity of compound against multidrug-resistant strain of Plasmodium yoelii in Swiss mice (Mus musculus) at a dose of 100 mg/kg/day (percent suppression on day 4); format: functional
[4] = tested on: Mus musculus; assay: Antimalarial activity of compound against multidrug-resistant strain of Plasmodium yoelii in 5 Swiss mice (Mus musculus) treated at a dose of 50 mg/kg/day; format: functional
[5] = tested on: Mus musculus; assay: Antimalarial activity of compound against multidrug-resistant strain of Plasmodium yoelii in Swiss mice (Mus musculus) at a dose of 50 mg/kg/day (percent suppression on day 4); format: functional
[6] = tested on: Mus musculus; assay: Antimalarial activity of compound against multidrug-resistant strain of Plasmodium yoelii in 5 Swiss mice (Mus musculus) at a dose of 50 mg/kg/day; format: functional
[7] = tested on: Mus musculus; assay: Antimalarial activity of compound against multidrug-resistant strain of Plasmodium yoelii in Swiss mice (Mus musculus) at a dose of 50 mg/kg/day (percent suppression on day 4-nil); format: functional, organism-based
[8] = tested on: Mus musculus; assay: Antimalarial activity of compound against multidrug-resistant strain of Plasmodium yoelii in 5 Swiss mice (Mus musculus) at a dose of 100 mg/kg/day; format: functional
[9] = tested on: Mus musculus; assay: In vivo antimalarial activity of compound against multidrug-resistant strain of Plasmodium yoelii in 5 Swiss mice (Mus musculus) treated at a dose of 25 mg/kg/day; format: functional
[10] = Antimalarial activity of compound against multidrug-resistant strain of Plasmodium yoelii in Swiss mice (Mus musculus) at a dose of 100 mg/kg/day (percent suppression on day 4); toxic; format: organism-based; conditions: in vivo
[11] = tested on: Mus musculus; assay: Number of mice alive on day 28 treated with a dose of 12.5 mg/kg/day; format: functional
[12] = tested on: Mus musculus; assay: Mean survival time of animals was calculated after administering a dose of 50 mg/kg/day during 28-day observation period; format: functional
[13] = tested on: Mus musculus; assay: Mean survival time of animals was calculated after administering a dose of 25 mg/kg/day during 28-day observation period; format: functional
[14] = tested on: Mus musculus; assay: Antimalarial activity of compound against multidrug-resistant strain of Plasmodium yoelii in Swiss mice (Mus musculus) at a dose of 25 mg/kg/day (percent suppression on day 4); format: functional
[15] = tested on: Mus musculus; assay: Number of mice alive on day 28 treated with a dose of 6.25 mg/kg/day; format: functional
[16] = tested on: Mus musculus; assay: Antimalarial activity of compound against multidrug-resistant strain of Plasmodium yoelii in Swiss mice (Mus musculus) at a dose of 6.25 mg/kg/day (percent suppression on day 4); format: functional
[17] = tested on: Mus musculus; assay: Mean survival time of animals was calculated after administering a dose of 6.25 mg/Kg/day during 28-day observation period; format: functional
[18] = tested on: Mus musculus; assay: Number of mice alive on day 28 treated with a dose of 50 mg/kg/day; format: functional
[19] = tested on: Mus musculus; assay: Antimalarial activity of compound against multidrug-resistant strain of Plasmodium yoelii in Swiss mice (Mus musculus) at a dose of 12.5 mg/kg/day (percent suppression on day 4); format: functional
[20] = tested on: Mus musculus; assay: Antimalarial activity of compound against multidrug-resistant strain of Plasmodium yoelii in 5 Swiss mice (Mus musculus) treated at a dose of 6.25 mg/Kg/day; format: functional
[21] = tested on: Mus musculus; assay: Antimalarial activity of compound against multidrug-resistant strain of Plasmodium yoelii in 5 Swiss mice (Mus musculus) treated at a dose of 12.5 mg/Kg/day; format: functional
[22] = tested on: Mus musculus; assay: Mean survival time of animals was calculated after administering a dose of 12.5 mg/kg/day during 28-day observation period; format: functional
[23] = tested on: Mus musculus; assay: Number of mice alive on day 28 treated with a dose of 25 mg/kg/day; format: functional

`[C-]#[N+]c1cccc2ccccc12` showed an MIC [1] of 50 µg/mL (≈ 326 µM).

With `[C-]#[N+]c1ccc(-c2ccccc2)cc1` the “No. of mice cured” value [2] was 0, the Supression [3] was 62.79% and the “No. of mice cured” value [4] was 0. It also gave a Supression [5] of 32.98% and an MIC [1] of 1 µg/mL (≈ 5.58 µM).

Molecule `[C-]#[N+][C@H]1CC[C@@]2(C)[C@@H](CC[C@@H]3[C@@H]2CC[C@]2(C)[C@@H]([C@H](C)CCCC(C)C)CC[C@@H]32)C1` has an MIC [1] greater than 50 µg/mL.

With `[C-]#[N+]C1CC[C@@]2(C)[C@@H](CC[C@@H]3[C@@H]2CC[C@]2(C)[C@@H]([C@H](C)CCCC(C)C)CC[C@@H]32)C1` (some centres not stated) the MIC [1] was greater than 50 µg/mL.

In the case of `[C-]#[N+]c1ccc2c(c1)Cc1ccccc1-2`, the “No. of mice cured” value [2] is reported as 0, the Supression [3] is reported as 21.35% and the “No. of mice cured” value [4] is reported as 0. It also gave a Supression [5] of 6.34% and an MIC [1] of 2 µg/mL (≈ 10.5 µM).

In the case of `[C-]#[N+]c1ccc(C(C)=O)cc1`, the “No. of mice cured” value [6] is reported as 0, the Supression [3] is reported as 35.72% and the Supression [7] is reported as “Nil”. For the same molecule, the MIC [1] was 2 µg/mL (≈ 13.8 µM) and the “No. of mice cured” value [8] was 0.

Molecule `[C-]#[N+]C1C[C@H](C)CC[C@H]1C(C)C` (some centres not stated) has an MIC [1] of 50 µg/mL (≈ 303 µM).

In the case of `[C-]#[N+]c1ccc2ccccc2c1`, the MIC [1] is reported as 50 µg/mL (≈ 326 µM).

`[C-]#[N+]c1ccc(Br)cc1Br` gave an MIC [1] of 50 µg/mL (≈ 192 µM).

For `[C-]#[N+]C12CC3CC(CC(C3)C1)C2`, the “No. of mice cured” value [9] was 0, the Supression [10] was “Toxic” and the Survival [11] was 0. For the same molecule, the MST [12] was 16.3, the MST [13] was 12.8 and the Supression [14] was 99.8%. The “No. of mice cured” value [2] was 0, the Survival [15] was 0 and the Supression [16] was 19%. For the same molecule, the “No. of mice cured” value [4] was 2, the MST [17] was 8.2 and the Supression [5] was 100%. The Survival [18] was 2, the Supression [19] was 73% and the “No. of mice cured” value [20] was 0. For the same molecule, the “No. of mice cured” value [21] was 0, the MST [22] was 11.8 and the MIC [1] was 0.4 µg/mL (≈ 2.48 µM). For the same molecule, the Survival [23] was 1.

In the case of `C[C@@H]1CC[C@H]2[C@@H](C)C(=O)O[C@@H]3O[C@@]4(C)CC[C@@H]1[C@]32OO4` [ARTEMISININ], the MIC [1] is reported as 0.03 µg/mL (≈ 0.106 µM).

`CCN(CC)CCCC(C)Nc1ccnc2cc(Cl)ccc12` (configuration not stated) [CHLOROQUINE] gave an MIC [1] of 0.04 µg/mL (≈ 0.125 µM).
